Measurements from patent publication US5166135A, “Method for the control of pneumocystis carinii” (Merck & Company, Inc., priority 1991, dated 1992).
Several values for one entry are separate records, joined by “and”; a condition that tells them apart may be missing. Equal entries are not always repeated. Numbered stars: 1 amine (or outer) side, 2 acyl side, 3 side chain; on linkers, the order of the positions; unused ones are H or OH. Bridge positions count the residues as written; N and C are the ends. Square brackets hold non-standard residues; d marks the D form. Peptide text beside a SMILES is read from it. * marks the point of attachment. ξ: configuration not given here. Orn(4R-OH,5R-OH) = O=C([C@H](C[C@@H](O)[C@@H](O)N[*:3])N[*:1])[*:2]; ξOrn(4R-OH,5R-OH) = O=C(C(C[C@@H](O)[C@@H](O)N[*:3])N[*:1])[*:2]; Tetradecanoyl(10R,12S-Me2) = CC[C@H](C)C[C@H](C)CCCCCCCCC(=O)*; hTyr(3S-OH,4S-OH) = N[C@H](C(=O)O)[C@H](O)[C@@H](O)c1ccc(O)cc1; ξhTyr(3S-OH,4S-OH) = NC(C(=O)O)[C@H](O)[C@@H](O)c1ccc(O)cc1; ξOrn(4,5-diOH) = O=C(C(CC(O)C(O)N[*:3])N[*:1])[*:2]; ξhTyr(βξ-OH,γξ-OH) = NC(C(=O)O)C(O)C(O)c1ccc(O)cc1; Pro(3S-OH,4S-Me) = C[C@H]1CN[C@H](C(=O)O)[C@H]1O; Benzoyl(4-octyloxy) = CCCCCCCCOc1ccc(C(=O)*)cc1; Gln(3R-OH) = NC(=O)C[C@@H](O)[C@H](N)C(=O)O; Linoleoyl = CCCCC/C=C\C/C=C\CCCCCCCC(=O)*; X1 = C[C@H]1CN([*:1])C(C(=O)[*:2])[C@H]1O; ξPro(3ξ-OH,4ξ-Me) = CC1CNC(C(=O)O)C1O; ξPro(4R-OH) = O=C(O)C1C[C@@H](O)CN1; Stearoyl = CCCCCCCCCCCCCCCCCC(=O)*; Hyp = O=C(O)[CH]1C[CH](O)CN1; ξT = CC(O)C(N)C(=O)O

What was measured:
Pneumocystis carinii [1] = assay: Similar rat study, 7 days treatment, antipneumocystis activity of Compound IBii and Compound IA; type: in vivo; conditions: rats, 2 mg/kg injected twice daily for 7 days; vehicle 10% DMSO
Experimental: A similar rat study was conducted to determine the antipneumocystis activity of 1-[(4R,5R)-4,5-dihydroxy-N^2 -[4-(octyloxy)benzoyl]-L-iiornithine]echinocandin B (Compound IBii). After 6 weeks of immunosuppression the rats were injected twice daily for 7 days with vehicle alone, Compound IBii (2 mg/kg) or Compound IA (2 mg/kg) during which time immunosuppression was continued. At the end of the treatment period the animals were sacrificed and the number of cysts per lung determined. Compound IA reduced the number of cysts by >99% while Compound IBii reduced the cyst counts by approximately 84% (compared to the vehicle control, 10% DMSO).

[2] = system: Pneumocystis carinii cysts; assay: 4-day treatment experiments, minimum effective dose for 90 percent clearance of cysts (Table III); type: in vivo; conditions: minimum effective dose for 90 percent clearance of cysts, six animals per dose level
Experimental: When 4-day treatment experiments were carried out in a similar manner, but using different doses in order to determine the minimum effective dose for 90 percent clearance of Pneumocystis carinii cysts, the results shown on Table III were obtained (Six animals were used at each dose level.)

P. carinii [3] = assay: Immunosuppressed mice study, reduction of cysts (Table II); type: in vivo, C3 H/HeN mice; conditions: 2 mg/kg intraperitoneally twice daily for one week
From the text: Male C3 H/HeN mice, weighing 22-24 grams each, were immunosuppressed by the addition of dexamethasone to the drinking water for six weeks to induce the development of P. carinii infections. To enhance the infections the mice were also maintained on a low protein diet. At the beginning of the seventh week, the mice were randomly divided into groups of 6. All groups continued to receive dexamethasone in the drinking water and low protein diet for the remainder of the study. Mice in each group were injected intraperitonially twice daily with 0.5 ml of a 10% DMSO solution as a vehicle control or the same cocktail containing drug to achieve a dose of 2 mg/kg. This procedure was continued for one week.
At the end of the treatment period (a total of seven weeks of immunosuppression) the animals were sacrificed and the lung tissue removed. The tissue was then processed to determine the number of cysts for each animal.

Solubility properties = type: physicochemical; conditions: methanol, ethanol, dimethylformamide, dimethyl sulfoxide, and the like
P. carinii [4] = assay: Long term (21 days) therapy study, rate of cyst clearance; type: in vivo
Experimental: Pentamadine was administered intravenously daily at a dose of 10 mg/kg, 2.5 times the recommended dose for man. Compound IA was given twice daily intraperitonealy at 1.0 mg/kg.

P. carinii [5] = assay: In vivo testing of Compound IA and TMP-SMZ against P. carinii in immunosuppressed rats (Table I); set-up: species or system Sprague-Dawley rats
Experimental: In a representative study employing Compound IA in rats, nine male Sprague-Dawley rats from a colony known to have latent P. carinii infections, weighting approximately 200 grams each, were immunosupressed by the addition of dexamethasone to the drinking water (2.0 mg/liter) for six weeks to induce the development of P. carinii infections. To enhance the infection the rats were also maintained on a low protein diet. At the beginning of the seventh week the rats were divided into three groups of three rats each. All three groups continued to receive dexamethasone in the drinking water and low protein diet throughout the remainder of the study. The rats in Group I were kept as untreated infected controls, those in Group II were injected intraperitoneally twice daily for two weeks with 0.5 ml of sterile dH2 O containing 2 mg of Compound IA, and those in Group III were treated with trimethoprim-sulfamethoxazole (TMP-SMZ) in the drinking water (208 mg TMP and 1.040 g of SMZ/liter) for two weeks, a known treatment for P. carinii infections. Two rats died early in the experiment. One was from group II (rat 72A) and the other from group III (rat 75A). It was not determined whether they died from Pneumocystis pneumonia. At the end of the two week treatment period (a total of eight weeks of immunosuppression) the animals were sacrificed and the lung tissue removed. The lungs from each animal were weighed, and then processed to determine the number of cysts and parasite nuclei for each animal.

P. carinii [6] = assay: Prophylaxis study in immunosuppressed rats with latent P. carinii infections (Table IV); type: in vivo
Experimental: In a study to test the effectiveness of these compounds as a potential prophylactic agent, rats with latent P. carinii infections were immunosuppressed with dexamethasone in drinking water to stimulate the development of acute PCP. During this immunosuppression period the animals were given daily subcutaneous injections of either 1 mg/kg of Compound IA or vehicle. After six weeks all animals were sacrificed. The number of cysts per lung was determined microscopically and the nuclei (trophozites)were quantitated using a specific DNA probe. From the following table (Table IV) it can be seen that the development of both cysts and trophozoite forms of P. carinii is prevented by daily treatments of Compound IA.

P. carinii [7] = assay: Repeat rat experiment with larger number of rats, cysts per lung; type: in vivo; conditions: five rats Compound IA, six rats TMP-SMZ; DMSO control 5.8×10^5 to 3.1×10^7; limit of resolution 2.8×10^3
Pneumocystis carinii [8] = assay: Rat study of the 2-aminoethyl ether of tetrahydroechinocandin B, four days subcutaneous, four dose levels; type: in vivo, Sprague-Dawley rats; conditions: rats
Experimental: In still another study, the antipneumocystis activity of a compound in wherein R^I is OH, R^II is OH, R^III is --CH2 CH2 NH2, R^I is OH, R^V is CH3, R^V is CH3, R is [drawing 21] preparation and structure in Example G) was determined. In this study, Sprague-Dawley rats (weighing approximately 250 g) were immunosuppressed with dexasone in the drinking water (2.0 mg/L) and maintained on a regular protein diet for 7 weeks to induce the development of pneumocystis pneumonia from a latent infection. Before drug treatment 2 rats were sacrificed to confirm the presence of Pneumocystis carinii pneumonia (PCP), both rats had infections. The remaining rats (weighing approximately 150 g) were distributed into groups of 6 and injected twice daily for four days subcutaneously with compound in 0.25 ml of vehicle (10% DMSO). The control groups received vehicle alone. All animals continued to receive dexasone in the drinking water and regular diet during the drug treatment period. At the completion of treatment all animals were sacrificed, the lungs were removed and processed, and the extent of disease determined by microscopic analysis of stained slides.
Four dose levels of this compound were tested.

[9] = individual rats, after two weeks treatment
[10] = individual rats, after two weeks: Compound IA 2 mg i.p. twice daily, or TMP-SMZ in drinking water
[11] = 1 mg/kg s.c. daily for six weeks, P ≤ 0.002

CCCCCCCCOc1ccc(C(=O)NC2C[C@@H](O)[C@@H](O)NC(=O)C3[C@@H](O)[C@@H](C)CN3C(=O)C(C(C)O)NC(=O)C([C@H](O)[C@@H](O)c3ccc(O)cc3)NC(=O)C3C[C@@H](O)CN3C(=O)C(C(C)O)NC2=O)cc1 (stereo partly drawn) [Compound IBii, 1-[(4R,5R)-4,5-dihydroxy-N^2-[4-(octyloxy)benzoyl]-L-ornithine]echinocandin B] ({Benzoyl(4-octyloxy)}-[ξOrn(4R-OH,5R-OH)][ξT][ξPro(4R-OH)][ξhTyr(3S-OH,4S-OH)][ξT][X1]; lactam 1-C)
reduction of number of cysts per lung compared to vehicle control (Pneumocystis carinii [1]): approximately 84% | ED90 [2]: 4.0 mg/kg

O-benzyltetrahydroechinocandin B [O-Benzyl-TEB]
% Reduction of Cysts (P. carinii [3]): 99%

CCCCC/C=C\C/C=C\CCCCCCCC(=O)N[C@H]1C[C@@H](O)[C@@H](O)NC(=O)[C@@H]2[C@@H](O)[C@@H](C)CN2C(=O)[C@H]([C@@H](C)O)NC(=O)[C@H]([C@H](O)[C@@H](O)c2ccc(O)cc2)NC(=O)[C@@H]2C[C@@H](O)CN2C(=O)[C@H]([C@@H](C)O)NC1=O [Echinocandin B] (Linoleoyl-[Orn(4R-OH,5R-OH)]T[Hyp][hTyr(3S-OH,4S-OH)]T[Pro(3S-OH,4S-Me)]; lactam 1-C)
% Reduction of Cysts (P. carinii [3]): > 99% | ED90 [2]: 1.2 mg/kg

O-methyltetrahydroechinocandin B [O-Methyl-TEB]
% Reduction of Cysts (P. carinii [3]): > 99%

CC[C@H](C)C[C@H](C)CCCCCCCCC(=O)N[C@H]1C[C@@H](O)[C@@H](O)NC(=O)[C@@H]2[C@@H](O)[C@@H](C)CN2C(=O)[C@H]([C@H](O)CC(N)=O)NC(=O)[C@H]([C@H](O)[C@@H](O)c2ccc(O)cc2)NC(=O)[C@@H]2C[C@@H](O)CN2C(=O)[C@H]([C@@H](C)O)NC1=O [Compound IA] ({Tetradecanoyl(10R,12S-Me2)}-[Orn(4R-OH,5R-OH)]T[Hyp][hTyr(3S-OH,4S-OH)][Gln(3R-OH)][Pro(3S-OH,4S-Me)]; lactam 1-C)
solubility in organic solvents (Solubility properties): soluble | reduction of number of cysts per lung compared to vehicle control (Pneumocystis carinii [1]): > 99% | extent of cyst clearance (reduction) (P. carinii [4]; Compound IA 1.0 mg/kg i.p. twice daily, compared with known agents at the two week time point): greater than 99% | time to elimination of cysts (P. carinii [4]; Compound IA 1.0 mg/kg intraperitoneally twice daily): ≤ 4 days | CYST SCORE (P. carinii [5]; [9]): 0 | LUNG WT. (P. carinii [5]; [9]): 2.83 gms and 1.40 gms | TOTAL NUCLEI per gm lung (P. carinii [5]; [10]): 7.4 × 10^8 and 7.1 × 10^8 | TOTAL NUCLEI per lung (P. carinii [5]; [10]): 2.1 × 10^9 and 1.0 × 10^9 | cysts in the lungs of treated rats (P. carinii [5]; two weeks treatment, controls 3.2×10^8 -1.5×10^9): No cysts could be found | number of parasite nuclei (range over treated rats) (P. carinii [5]; two weeks treatment, controls 5.8×10^9 -1.4×10^10): 1.0-2.1×10^9 | % Reduction of Cysts (P. carinii [3]): > 99% | ED90 [2]: 0.2 mg/kg | Cysts Log Mean (P. carinii [6]; 1 mg/kg s.c. daily for six weeks during immunosuppression, detection limit 4.66, control 7.76 ± 0.10): 4.70 ± 0.04 | Nuclei Log Mean (P. carinii [6]; 1 mg/kg s.c. daily for six weeks, DNA probe, detection limit 4.66, control 7.50 ± 0.15): 4.85 ± 0.05 | Cysts Reduction (P. carinii [6]; [11]): > 99.9% | Nuclei Reduction (P. carinii [6]; [11]): 99.8% | Mean Lung Wt. (P. carinii [6]; 1 mg/kg s.c. daily for six weeks, P ≤ 0.002 vs control): 1.81 ± .10 gms | Mean Body Wt. (P. carinii [6]; 1 mg/kg s.c. daily for six weeks, control 147.1 ± 6.3): 142.0 ± 4.2 gms | number of cysts per lung (range over rats) (P. carinii [7]): 3.2×10^3 to 2.6×10^4

Tetrahydroechinocandin-B, 2-aminoethyl Ether, Trifluoroacetate Salt [Example G]
reduction of cysts (Pneumocystis carinii [8]; 18.25 μg/kg s.c. twice daily for four days): 96% | reduction of cysts (Pneumocystis carinii [8]; 37.5 μg/kg s.c. twice daily for four days): 98% | reduction of cysts (Pneumocystis carinii [8]; 75 μg/kg s.c. twice daily for four days): 99% | reduction of cysts (Pneumocystis carinii [8]; 150 μg/kg s.c. twice daily for four days): 99% | ED90 (Pneumocystis carinii [8]; s.c. twice daily for four days, cyst reduction): below 18.25 μg/kg | ED90 [2]: < 0.02 mg/kg

CCCCCCCCCCCCCCCCCC(=O)NC1CC(O)C(O)NC(=O)C2C(O)C(C)CN2C(=O)C(C(C)O)NC(=O)C(C(O)C(O)c2ccc(O)cc2)NC(=O)C2CC(O)CN2C(=O)C(C(C)O)NC1=O (stereo not drawn) [Tetrahydroechinocandin B (TEB), tetrahydroechinocandin B] (Stearoyl-[ξOrn(4,5-diOH)]T[Hyp][ξhTyr(βξ-OH,γξ-OH)]T[ξPro(3ξ-OH,4ξ-Me)]; lactam 1-C; configuration not given here)
% Reduction of Cysts (P. carinii [3]): 99% | ED90 [2]: 0.2 mg/kg
